Data set [1] relates to AsPC-1 pancreatic cancer cells. Briefly: Efficacy study in mouse AsPC-1 CDX model, compounds given orally. Format: in vivo, Balb/C nude mice. Particulars: BID; for effect on mouse body weight: given orally; for TGI (%): oral, Compound A1 100 mg/kg for 12 days, Compound 1 126 mg/kg (molar equivalent) for 16 days. On the procedure:
(§1) Balb/C nude mice, aged 6-8 weeks, were inoculated subcutaneously with 5×10^6 AsPC-1 pancreatic cancer cells, in 0.1 ml PBS. Eleven days post-inoculation, tumor bearing animals were randomized into Vehicle (four mice), Compound A1 (four mice) and Compound 1 (five mice), followed by oral dosing twice daily at 100 mg/kg for Compound A1 and 126 mg/kg for Compound 1 (Table 6). Tumor volume was measured every three days using a caliper, and tumor size was calculated using the formula TV=length×width^2×0.5. Tumor growth inhibition (TGI) was calculated using the given formula TGI=[1−(Vtx_t−Vtx_0)/(Vct_t−Vct_0)]×100%, where Vtx_t means tumor volume in treatment group measured at time point t, Vtx_0 means tumor volume of treatment group measured at time point 0, Vct_t means tumor volume of vehicle group measured at time point t, and Vct_0 means tumor volume of vehicle group measured at time point 0.

Data set [2] in a line: Mouse PK study: blood AUC of compound A1 after oral or intravenous administration. It is filed as in vivo. The conditions noted are these: ICR mice, equimolar dose. On the procedure: A total 126 ICR mice (male, 30-34 g) were randomly divided into 42 groups with 3 animals/group (oral or intravenous administration). Blood samples were collected at 0.167, 0.5, 1, 2, 4, 6, 8, and 24 hours post-dose for oral group and 0.083, 0.25, 0.5, 1, 2, 4, 6, and 8 hours post-dose for intravenous group. The test compounds were dissolved into vehicle solutions (5% DMSO+5% Solutol+90% 20% SBE-β-CD solvents).
Animals were administered with compound A1 or exemplary test compounds by intravenous bolus administration at 3 mg/kg (equimolar dose to compound A1) and oral administration at 10 mg/kg (equimolar dose to compound A1) after fasted 12 hours, respectively. Post-dose blood samples were collected at preset time point (50 μL/animal/time point), and 20 μL blood was accurately separated into 200 μL eppendorf (EP) tube containing acetonitrile and internal standard. The supernatant was prepared by centrifuging the blood samples at approximately 4° C., 12000 rpm for 5 minutes. All samples were then quickly frozen over dry ice and kept at −60° C. or lower until analysis. The supernatant was analyzed by LC-MS/MS to detect the concentration of test compounds and metabolites.

Data set [3] relates to GP2D colonrectal cancer cells. Format: in vivo. Particulars: for TGI (%): 21 days. The method, then:
After Balb/C nude mice (aged 6-8 weeks) were inoculated subcutaneously with 5×10^6 GP2D colonrectal cancer cells, in 0.1 ml PBS, they were grouped 11 days post-inoculation and treated with intraperitoneal injections of the given compounds for 21 days. Note that Compound 52 at 40.3 mg/kg and Compound 53 at 43 mg/kg are molar equivalent to 18 mg/kg of Compound A1. Tumor volume and TGI were measured and calculated as described before (Table 8).
Balb/C nude mice, aged 6-8 weeks, were inoculated subcutaneously with 5×10^6 GP2D colonrectal cancer cells, in 0.1 ml PBS. Eleven days post the inoculation, tumor bearing animals were randomly grouped based on given compounds and vehicle. Compound A1, as positive control, was IP administered at 18 mg/kg qd for 21 days. Compound 52 at 40.3 mg/kg (molar equivalent to 18 mg/kg of Compound A1) was IV administered q3d, and subsequently switched to 27 mg/kg for 21 days. Compound 53 at 43 mg/kg (molar equivalent to 18 mg/kg of Compound A1) was either IV or IP dosed q3d for 21 days (Table 8).

The test system of the next data set is AsPC-1 cells. Briefly: Tumor growth inhibition in mouse AsPC-1 CDX model, compounds given parenterally (IP/IV). It is filed as in vivo. The conditions noted are these: for TGI (%): 27 days; for tumor growth inhibition compared to vehicle control: FIG. 6. On the procedure:
as §1
Balb/C nude mice bearing tumors derived from AsPC-1 cells as described previously, were grouped into Vehicle intraperitoneal (IP) (five mice), Compound A1 IP (five mice), Compound A1 intravenous (IV) (three mice), Compound 52 IP (five mice) and Compound 52 IV injections (six mice). All compounds were administered once daily at equal molarity (Compound A1, 6 mg/kg) for 27 days. Tumor volume was measured and calculated as described previously.

The mark [4] stands for this setting: IP, qd, Compound A1 18 mg/kg, Compound 52 40.3 mg/kg (molar equivalent).
[5] abbreviates: IP, qd, Compound A1 6 mg/kg, Compound 52 13.44 mg/kg (molar equivalent).

Each structure is given as a SMILES string. “And” between values parts separate entries of the source, which are not always exact repeats. Identical values can stand only once. Like-named read-outs stand apart in the source and are kept apart here.

Turning to `C#Cc1c(F)ccc2cc(O)cc(-c3ncc4c(N5CC6CCC(C5)N6C(=O)OC(C)OC(=O)CCC)nc(OC[C@@]56CCCN5C[C@H](F)C6)nc4c3F)c12` (stereo partly drawn) [Compound 1], in data set [1], the “effect on mouse body weight” value was “Neither Compound 1 nor A1 adversely affected mouse body weight”; the “TGI (%)” value is 53.5% and 53.95%.
For `C#Cc1c(F)ccc2cc(O)cc(-c3ncc4c(N5CC6CCC(C5)N6C(=O)OC(C)OC(=O)CC(C)C)nc(OC[C@@]56CCCN5C[C@H](F)C6)nc4c3F)c12` (stereo partly drawn) [Compound 10], in data set [2], the “AUC of A1 increased compared to direct oral administration of A1” value is given as “more than 8.5 times”.
In the case of `C#Cc1c(F)ccc2cc(OC(=O)OC(COC(=O)CCCCCCCC)COC(=O)CCCCCCCC)cc(-c3ncc4c(N5CC6CCC(C5)N6)nc(OC[C@@]56CCCN5C[C@H](F)C6)nc4c3F)c12` [Compound 52], the “TGI (%)” value in data set [3] (setting [4]) stood at 87.1%; in data set [3] (IV, q3d, 27 mg/kg (molar equivalent to 12 mg/kg A1)), 80.0%; with AsPC-1 cells (setting [5]), 36.12%; in the data set on AsPC-1 cells (IV, qd, Compound 52 13.44 mg/kg (molar equivalent to 6 mg/kg A1)), 47.22%. The “body weight of mice” value in data set [3] (IV 27 mg/kg once every 3 days) is “remained normal”. Further, the “death of recipient animals” value in data set [3] (intravenously dosed at 40.3 mg/kg (molar equivalent to 18 mg/kg A1)) was determined as 50%. Besides, the “growth inhibition of tumors harboring the KRAS^G12D mutation” value in data set [3] (parenterally administered with the dosages of Table 8) is listed as “significant growth inhibition”. The “tumor growth inhibition compared to vehicle control” value in the data set with AsPC-1 cells (intraperitoneal administration) and with AsPC-1 cells (intravenous injection) was “significant tumor growth inhibition” throughout.
With `C#Cc1c(F)ccc2cc(O)cc(-c3ncc4c(N5CC6CCC(C5)N6)nc(OC[C@@]56CCCN5C[C@H](F)C6)nc4c3F)c12` [Compound A1, reference compound], the “effect on mouse body weight” value in data set [1] is listed as “Neither Compound 1 nor A1 adversely affected mouse body weight”. In addition, the “TGI (%)” value in data set [1] worked out at 9.07%; in data set [3] (setting [4]), 85.0%; in the data set on AsPC-1 cells (setting [5]), 37.27%. Besides, the “animal death observed (footnote D in TGI column)” value in the data set on AsPC-1 cells (IV, qd, Compound A1 6 mg/kg, 3 mice) was “caused the death of all mice within 24 hours”. In the data set on AsPC-1 cells (intraperitoneal administration), the “tumor growth inhibition compared to vehicle control” value is given as “significant tumor growth inhibition”.

Values taken from patent publication US20240116952A1, “KRAS INHIBITOR AND PHARMACEUTICAL USES THEREOF” (RISEN (SUZHOU) PHARMA TECH CO., LTD., priority 2022, published 2024).
